Measured values from publication doi:10.1101/2022.10.27.513961v1 (bioRxiv, 2022).

What was measured:
Format in all cases: cell-based
HT144 cells [1] = test: Cytotoxicity, resazurin assay; conditions: for IC50: Homo sapiens
WM164 cells [2] = test: Microscopy during long-term treatment; conditions: WM164, 100 nM dabrafenib
HT144 cells [3] = test: Microscopy during long-term treatment; conditions: HT144, 100 nM dabrafenib
WM164 cells [4] = test: Cell surface charge, zeta potential; conditions: WM164 PDRCs (105 days with dabrafenib), mean ± SEM, n=3
HT144 cells [5] = test: Lipidome analysis, shotgun tandem MS of lipid extracts
HT144 cells [6] = test: Cell surface charge, zeta potential; conditions: mean ± SEM, n=3
WM164 cells [7] = test: Co-treatment of dabrafenib with peptide, resazurin assay; conditions: drug-naïve WM164, drug (50 nM) or peptide (at IC50) added alone, 72 h
WM164 cells [8] = test: Cytotoxicity, resazurin assay; conditions: Homo sapiens, WM164, Parental WM164 cells
WM164 cells [9] = test: Lipidome analysis, shotgun tandem MS of lipid extracts
[10] = HT144, dabrafenib 30 days vs untreated
[11] = WM164, 15-30 days of dabrafenib
[12] = WM164, dabrafenib 30 days vs untreated

Compound: CC(C)(C)c1nc(-c2cccc(NS(=O)(=O)c3c(F)cccc3F)c2F)c(-c2ccnc(N)n2)s1 [dabrafenib, reference compound]
- IC50 (HT144 cells [1]; HT-144, 72 h, HT144 PDRC (100 nM), resazurin three days after drug): > 1000 nM
- IC50 (HT144 cells [1]; HT-144, Parental HT144 cells): 22 nM
- toxicity (HT144 cells [1]; PDR HT144 cells, at 1µM): ~10%
- time to death of drug-naïve cells (WM164 cells [2]): ≤ 48 h
- time to death of drug-naïve cells (HT144 cells [3]): ≤ 48 h
- surface charge, zeta potential (WM164 cells [4]): −20.18 ± 0.95 mV
- SM proportion (HT144 cells [5]; HT144, dabrafenib 30 days (untreated 5)): 9 mol%
- PE proportion (HT144 cells [5]; HT144, dabrafenib 30 days (untreated 15)): 20 mol%
- PC proportion (HT144 cells [5]; HT144, dabrafenib 30 days (untreated 59)): 51 mol%
- fold decrease in PC (HT144 cells [5]; [10]): 0.9 fold
- fold increase in PE (HT144 cells [5]; [10]): 1.3 fold
- fold increase in SM (HT144 cells [5]; [10]): 1.8 fold
- surface charge, zeta potential (HT144 cells [6]; HT144 DTPs (30 days with dabrafenib)): −15.94 ± 0.59 mV
- surface charge, zeta potential (HT144 cells [6]; HT144 PDRCs (105 days with dabrafenib)): −17.7 ± 0.30 mV
- cell death (WM164 cells [7]): ~ 50%
- IC50 (WM164 cells [8]): 44 nM
- SM proportion (WM164 cells [9]; WM164, 100 nM dabrafenib 30 days (untreated 3)): 11 mol%
- fold increase of PI 38:4 (WM164 cells [9]; [11]): 3 fold
- fold increase of SM 36:1 (WM164 cells [9]; [11]): 3 fold
- SM 36:1 abundance (WM164 cells [9]; WM164, 15-30 days of dabrafenib (before 8)): 26 mol%
- PI 38:4 abundance (WM164 cells [9]; WM164, 15-30 days of dabrafenib (before 18)): 55 mol%
- negatively charged lipids (PS+PI) proportion (WM164 cells [9]; WM164, dabrafenib 30 days (untreated 19)): 23 mol%
- zwitterionic PE and PC proportion (WM164 cells [9]; WM164, dabrafenib 30 days (untreated 78)): 66 mol%
- fold decrease in PE and PC (WM164 cells [9]; [12]): 0.8 fold
- fold increase in PS+PI (WM164 cells [9]; [12]): 1.2 fold
- fold increase in SM (WM164 cells [9]; [12]): 3.7 fold
